Results on 31 compounds are retold here after US7732457B2, “Amino-pyridines as inhibitors of β-secretase” (Wyeth LLC, priority 2005, dated 2010).

One data set has as its target human BACE1 (Homo sapiens, UniProt P56817). As to the kind of experiment: BACE-1 fluorescent kinetic assay (cleavage of peptide substrate WABC-6). It is filed as biochemical. As to conditions: 10 nM enzyme, 25 μM substrate WABC-6, Na-Acetate pH 4.5, room temperature. On the procedure: Evaluation of BACE-1 Binding Affinity of Test Compounds
Fluorescent Kinetic Assay
Dilution and mixing steps: total reaction volume: 100 μL
100 μM substrate dilution in 1×PBS was prepared, and
Fluorescence Readings: Readings at λex 320 nm and λem 420 nm are taken every 40 sec for 30 min at room temperature and the linear slope for substrate cleavage rate (vi) determined.

SMILES strings stand for the structures. Where a name gives a salt, the structure may show the parent alone.

Chain of human BACE1 (P56817 46-501): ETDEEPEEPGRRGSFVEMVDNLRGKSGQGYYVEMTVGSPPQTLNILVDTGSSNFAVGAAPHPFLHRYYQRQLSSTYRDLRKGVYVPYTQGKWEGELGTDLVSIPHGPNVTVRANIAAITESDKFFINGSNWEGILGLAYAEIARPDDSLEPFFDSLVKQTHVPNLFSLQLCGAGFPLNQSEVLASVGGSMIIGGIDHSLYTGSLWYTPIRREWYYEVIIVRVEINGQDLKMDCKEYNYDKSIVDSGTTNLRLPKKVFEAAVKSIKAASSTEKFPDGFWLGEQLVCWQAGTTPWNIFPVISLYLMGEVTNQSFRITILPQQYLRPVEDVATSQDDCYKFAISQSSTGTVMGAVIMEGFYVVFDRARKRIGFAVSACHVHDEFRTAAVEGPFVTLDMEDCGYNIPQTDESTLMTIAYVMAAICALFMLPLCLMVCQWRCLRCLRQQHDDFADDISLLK

Turning to `Nc1cccc(Cn2c(-c3ccc(Oc4ncccn4)cc3)ccc2-c2ccccc2Cl)n1` (as salt: hydrochloride) [Example 31, 6-{2-(2-Chloro-phenyl)-5-[4-(Pyrimidin-2-yloxy)-phenyl]-pyrrol-1-ylmethyl}-pyridin-2-ylamine hydrochloride], the melting point fell in the range of 135 to 140 °C. Turning to `Nc1cccc(Cn2c(-c3ccc(Oc4nccs4)cc3)ccc2-c2ccccc2Cl)n1` (as salt: hydrochloride) [Example 32, 6-{2-(2-Chloro-phenyl)-5-[4-(thiazol-2-yloxy)-phenyl]-pyrrol-1-ylmethyl}-pyridin-2-ylamine hydrochloride], the melting point lay in the range of 126 to 130 °C.

In turn, `Nc1cccc(Cn2c(-c3ccc(Oc4ccc(Br)cc4)cc3)ccc2-c2ccccc2Cl)n1` (as salt: hydrochloride) [Example 38, 6-[2-[4-(4-Bromophenoxy)phenyl]-5-(2-chlorophenyl)pyrrol-1-ylmethyl]pyridin-2-ylamine hydrochloride] yielded a melting point of 130 to 138 °C. On the same count and under the same terms, under `CCCCCOc1ccc(-c2ccc(-c3ccccc3Cl)n2Cc2ccc(OC)c(NCCCO)n2)cc1` (as salt: hydrochloride) [Example 41, 3-{6-[2-(2-Chloro-phenyl)-5-(4-pentyloxy-phenyl)-pyrrol-1-ylmethyl]-3-methoxy-pyridin-2-ylamino}-propan-1-ol hydrochloride] stands 86 to 88 °C; under `CCCCCNc1ccc(-c2ccc(-c3ccccc3Cl)n2Cc2cccc(N)n2)cc1` (as salt: hydrochloride) [Example 53, 6-[2-(2-Chloro-phenyl)-5-(4-pentylamino-phenyl)-pyrrol-1-ylmethyl]-pyridin-2-ylamine hydrochloride], 145 to 147 °C.

For the compound `Cc1cccc(C(=O)Nc2ccc(-c3ccc(-c4ccccc4Cl)n3Cc3cccc(N)n3)cc2)c1` [Example 1, N-{4-[1-(6-Amino-pyridin-2-ylmethyl)-5-(2-chloro-phenyl)-1H-pyrrol-2-yl]-phenyl}-3-methyl-benzamide], the melting point lay within 108 to 118 °C. Besides, the “BACE 1 IC50 μM” value at human BACE1 is listed as “D (D = >5.0 μM-0.10 = μM)”. Take `Nc1cccc(Cn2c(-c3ccc(NC(=O)c4cccc(Br)c4)cc3)ccc2-c2ccccc2Cl)n1` [Example 2, N-{4-[1-(6-Amino-pyridin-2-ylmethyl)-5-(2-chloro-phenyl)-1H-pyrrol-2-yl]-phenyl}-3-bromo-benzamide]: the melting point was 116 to 122 °C. The “BACE 1 IC50 μM” value on human BACE1 is on record as “D (D = >5.0 μM-0.10 = μM)”. As for `Nc1cccc(Cn2c(-c3ccc(NC(=O)c4ccccc4)cc3)ccc2-c2ccccc2Cl)n1` [Example 3, N-{4-[1-(6-Amino-pyridin-2-ylmethyl)-5-(2-chloro-phenyl)-1H-pyrrol-2-yl]-phenyl}-benzamide], the “BACE 1 IC50 μM” value at human BACE1 is listed as “D (D = >5.0 μM-0.10 = μM)”. As to `Nc1cccc(Cn2c(-c3ccc(Br)cc3)ccc2-c2ccccc2Cl)n1` [Example 4, 6-[2-(4-bromo-phenyl)-5-(2-chloro-phenyl)-pyrrol-1-ylmethyl]-pyridin-2-ylamine], the melting point fell in the range of 154 to 158 °C. At human BACE1, this compound registered an IC50 of 1100 to 5000 nM. In turn, `Nc1cccc(Cn2c(-c3ccc(O)cc3)ccc2-c2ccccc2Cl)n1` [Example 6, 4-[1-(6-Amino-pyridin-2-ylmethyl)-5-(2-chloro-phenyl)-1H-pyrrol-2-yl]-phenol] returned a melting point of 170 to 172 °C. Besides, the “BACE 1 IC50 μM” value on human BACE1 is given as “D (D = >5.0 μM-0.10 = μM)”. Consider `CCCCCCOc1ccc(-c2ccc(-c3ccccc3Cl)n2Cc2cccc(N)n2)cc1.Cl` [Example 17, 6-[2-(2-Chloro-phenyl)-5-(4-hexyloxy-phenyl)-pyrrol-1-ylmethyl]-pyridin-2-ylamine hydrochloride], for which the “BACE 1 IC50 μM” value at human BACE1 is recorded as “D (D = >5.0 μM-0.10 = μM)”. `Cl.N#CCCCCOc1ccc(-c2ccc(-c3ccccc3Cl)n2Cc2cccc(N)n2)cc1` [Example 19, 5-{4-[1-(6-Amino-pyridin-2-ylmethyl)-5-(2-chloro-phenyl)-1H-pyrrol-2-yl]-phenoxy}-pentanenitrile hydrochloride] displayed a melting point of 126 to 130 °C. This compound also returned an IC50 on human BACE1 of 110 to 1000 nM.

On to `Cl.N#CCCCCCOc1ccc(-c2ccc(-c3ccccc3Cl)n2Cc2cccc(N)n2)cc1` [Example 20, 6-{4-[1-(6-Amino-pyridin-2-ylmethyl)-5-(2-chloro-phenyl)-1H-pyrrol-2-yl]-phenoxy}-hexanenitrile hydrochloride], for which the melting point lay in the range of 98 to 106 °C. On human BACE1, the IC50 is 1100 to 5000 nM. In the case of `Nc1cccc(Cn2c(-c3ccc(-c4ccccc4)cc3)ccc2-c2ccccc2Cl)n1` [Example 27, 6-[2-Biphenyl-4-yl-5-(2-chlorophenyl)pyrrol-1-ylmethyl]pyridin-2-ylamine], the “BACE 1 IC50 μM” value on human BACE1 was “D (D = >5.0 μM-0.10 = μM)”. `Nc1cccc(Cn2c(-c3ccc(-c4cccnc4)cc3)ccc2-c2ccccc2Cl)n1` [Example 28] showed a melting point of 163 to 166 °C. The IC50 against human BACE1 was 110 to 1000 nM. `Nc1cccc(Cn2c(-c3ccc(-c4cncnc4)cc3)ccc2-c2ccccc2Cl)n1` [Example 29, 6-[2-(2-Chloro-phenyl)-5-(4-pyrimidin-5-yl-phenyl)-pyrrol-1-ylmethyl]-pyridin-2-ylamine]: the IC50 against human BACE1 lay within 110 to 1000 nM. On the same count and under the same terms, under `Nc1cccc(Cn2c(-c3ccc(Oc4ncccn4)cc3)ccc2-c2ccccc2Cl)n1` [Example 31, 6-{2-(2-Chloro-phenyl)-5-[4-(Pyrimidin-2-yloxy)-phenyl]-pyrrol-1-ylmethyl}-pyridin-2-ylamine hydrochloride] stands 1100 to 5000 nM. Same read-out and setting: under `Nc1cccc(Cn2c(-c3ccc(Oc4nccs4)cc3)ccc2-c2ccccc2Cl)n1` [Example 32, 6-{2-(2-Chloro-phenyl)-5-[4-(thiazol-2-yloxy)-phenyl]-pyrrol-1-ylmethyl}-pyridin-2-ylamine hydrochloride] stands 110 to 1000 nM; under `CC(=O)c1ccc(Oc2ccc(-c3ccc(-c4ccccc4Cl)n3Cc3cccc(N)n3)cc2)cc1` [Example 37, 1-(4-{4-[1-(6-Aminopyridin-2-ylmethyl)-5-(2-chlorophenyl)-1H-pyrrol-2-yl]phenoxy}-phenyl)ethanone hydrochloride], 110 to 1000 nM.

Consider `Nc1cccc(Cn2c(-c3ccc(Oc4ccc(Br)cc4)cc3)ccc2-c2ccccc2Cl)n1` [Example 38, 6-[2-[4-(4-Bromophenoxy)phenyl]-5-(2-chlorophenyl)pyrrol-1-ylmethyl]pyridin-2-ylamine hydrochloride], for which the “BACE 1 IC50 μM” value on human BACE1 is reported as “D (D = >5.0 μM-0.10 = μM)”.

For `CCCCCOc1ccc(-c2ccc(-c3ccccc3Cl)n2Cc2ccc(OC)c(N)n2)cc1` [Example 40, 6-[2-(2-Chlorophenyl)-5-(4-pentyloxyphenyl)-pyrrol-1-ylmethyl]-3-methoxypyridin-2-ylamine hydrochloride], the “BACE 1 IC50 μM” value on human BACE1 is reported as “D (D = >5.0 μM-0.10 = μM)”. Still for that read-out and setting: under `CCCCCOc1ccc(-c2ccc(-c3ccccc3Cl)n2Cc2ccc(OC)c(NCCCO)n2)cc1` [Example 41, 3-{6-[2-(2-Chloro-phenyl)-5-(4-pentyloxy-phenyl)-pyrrol-1-ylmethyl]-3-methoxy-pyridin-2-ylamino}-propan-1-ol hydrochloride] stands “D (D = >5.0 μM-0.10 = μM)”; under `CCCCCOc1ccc(-c2ccc(-c3ccccc3Cl)n2Cc2ccc(O)c(N)n2)cc1` [Example 42A, 2-Amino-6-[2-(2-chlorophenyl)-5-(4-pentyloxyphenyl)pyrrol-1-ylmethyl]pyridin-3-ol hydrochloride], “D (D = >5.0 μM-0.10 = μM)”. On the same count and under the same terms, under `CCCCCOc1ccc(-c2ccc(-c3ccccc3Cl)n2Cc2ccc(N)c(N)n2)cc1` [Example 42B, 6-[2-(2-Chlorophenyl)-5-(4-pentyloxyphenyl)pyrrol-1-ylmethyl]pyridine-2,3-diamine hydrochloride] stands “D (D = >5.0 μM-0.10 = μM)”.

For the compound `CCCCCOc1ccc(-c2ccc(-c3ccccc3Cl)n2Cc2ccc(OCCCO)c(N)n2)cc1` [Example 43A, 3-{(2-Amino-6-[2-(2-chlorophenyl)-5-(4-pentyloxyphenyl)pyrrol-1-ylmethyl]pyridin-3-yloxy}propan-1-ol hydrochloride], the “BACE 1 IC50 μM” value at human BACE1 is listed as “D (D = >5.0 μM-0.10 = μM)”. In the case of `CCCCCOc1ccc(-c2ccc(-c3ccccc3Cl)n2Cc2ccc(OCCCC#N)c(N)n2)cc1` [Example 43B, 4-{2-Amino-6-[2-(2-chlorophenyl)-5-(4-pentyloxyphenyl)pyrrol-1-ylmethyl]-pyridin-3-yloxy}butyronitrile hydrochloride], the “BACE 1 IC50 μM” value on human BACE1 is “D (D = >5.0 μM-0.10 = μM)”.

With `Nc1nc(Cn2c(-c3ccc(Br)cc3)ccc2-c2ccccc2Cl)ccc1OCCO` [Example 47, 2-{2-Amino-6-[2-(4-bromo-phenyl)-5-(2-chloro-phenyl)-pyrrol-1-ylmethyl]-pyridin-3-yloxy}-ethanol], the melting point lay within 80 to 82 °C. On human BACE1, this compound showed an IC50 of 110 to 1000 nM. In turn, `CCCCC(=O)Nc1ccc(-c2ccc(-c3ccccc3Cl)n2Cc2cccc(N)n2)cc1` [Example 52, Pentanoic acid {4-[1-(6-amino-pyridin-2-ylmethyl)-5-(2-chlorophenyl)-1H-pyrrol-2-yl]-phenyl}-amide] showed a melting point of 145 to 150 °C. The IC50 on human BACE1 is 1100 to 5000 nM. In turn, `CCCCCNc1ccc(-c2ccc(-c3ccccc3Cl)n2Cc2cccc(N)n2)cc1` [Example 53, 6-[2-(2-Chloro-phenyl)-5-(4-pentylamino-phenyl)-pyrrol-1-ylmethyl]-pyridin-2-ylamine hydrochloride] gave an IC50 on human BACE1 of 1100 to 5000 nM. The compound `CCCOc1ccc(-c2ccc(-c3ccccc3Cl)n2Cc2ccc(OCCO)c(N)n2)cc1` [Example 54, 2-[(2-amino-6-{[2-(2-chlorophenyl)-5-(4-propoxyphenyl)-1H-pyrrol-1-yl]methyl}pyridine-3-yl)oxy]ethanol] returned a melting point of 89 to 92 °C. This compound also displayed an IC50 at human BACE1 of 110 to 1000 nM.

Consider `CCCOc1ccc(-c2ccc(-c3ccccc3)n2Cc2cccc(N)n2)cc1` [Example 56, 6-{[2-phenyl-5-(4-propoxyphenyl)-1H-pyrrol-1-yl]methyl}pyridin-2-amine], for which the melting point lay in the range of 106 to 107 °C. Also, the IC50 against human BACE1 lay within 1100 to 5000 nM.
